pKi: −log10 of the molar value. *1 amine or outer side, *2 acyl side, *3 side chain or, on linkers, in order; H or OH if unused. Where a SMILES comes first, the peptide text is derived from it. Bridges are numbered along the chain shown (N, C = ends). [ ]: non-standard residue; d: D form. The star is where a group is joined. ξ: configuration not given here. X3 = C[C@@H](C(=O)[*:2])N(Cc1ccc2ccccc2c1)[*:1]; Phe(4-Cl) = N[C@@H](Cc1ccc(Cl)cc1)C(=O)O; d2Nal = N[C@H](Cc1ccc2ccccc2c1)C(=O)O; dNMeF = CN[C@H](Cc1ccccc1)C(=O)O; dThr(3ξ) = CC(O)[C@@H](N)C(=O)O; NMeA = CN[C@@H](C)C(=O)O; dNMeA = CN[C@H](C)C(=O)O; ξF = NC(Cc1ccccc1)C(=O)O; Abu = CC[C@H](N)C(=O)O; X2 = CC(O)[C@H](CO)N*; Ahp = NCCCCCCC(=O)O; Bn = c1ccc(C*)cc1; ξC = NC(CS)C(=O)O
What was measured:
[1] = target: T1, Somatostatin receptor type 5 (Rattus norvegicus, UniProt P30938)
T1 sequence (P30938 whole entry): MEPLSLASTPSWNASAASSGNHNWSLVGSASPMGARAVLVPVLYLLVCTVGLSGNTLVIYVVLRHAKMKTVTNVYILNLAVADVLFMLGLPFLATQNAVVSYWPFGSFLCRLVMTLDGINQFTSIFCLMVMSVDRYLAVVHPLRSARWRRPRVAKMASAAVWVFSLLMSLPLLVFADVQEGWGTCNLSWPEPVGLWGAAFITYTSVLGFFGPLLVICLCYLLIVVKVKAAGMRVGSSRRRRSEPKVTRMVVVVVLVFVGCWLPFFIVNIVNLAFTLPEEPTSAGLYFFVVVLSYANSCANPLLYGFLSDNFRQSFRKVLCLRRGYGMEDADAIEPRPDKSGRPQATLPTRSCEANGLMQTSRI

[2] = target: Somatostatin receptor type 4 (Mus musculus, UniProt P49660)
[3] = target: Somatostatin receptor type 3 (Mus musculus, UniProt P30935)
Somatostatin receptor type 3, sequence (P30935 whole entry): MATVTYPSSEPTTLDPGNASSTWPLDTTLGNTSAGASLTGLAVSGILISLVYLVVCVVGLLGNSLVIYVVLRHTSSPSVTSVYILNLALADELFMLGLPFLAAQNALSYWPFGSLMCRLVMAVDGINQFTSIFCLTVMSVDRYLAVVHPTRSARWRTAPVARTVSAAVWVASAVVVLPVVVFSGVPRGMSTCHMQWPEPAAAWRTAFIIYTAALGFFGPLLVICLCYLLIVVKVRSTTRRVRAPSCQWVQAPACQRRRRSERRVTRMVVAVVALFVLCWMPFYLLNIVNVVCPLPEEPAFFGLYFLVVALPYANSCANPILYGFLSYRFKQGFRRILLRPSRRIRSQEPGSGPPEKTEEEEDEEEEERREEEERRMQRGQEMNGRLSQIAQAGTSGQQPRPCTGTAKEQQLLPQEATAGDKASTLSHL

Somatostatin receptor type 4, sequence (P49660 whole entry): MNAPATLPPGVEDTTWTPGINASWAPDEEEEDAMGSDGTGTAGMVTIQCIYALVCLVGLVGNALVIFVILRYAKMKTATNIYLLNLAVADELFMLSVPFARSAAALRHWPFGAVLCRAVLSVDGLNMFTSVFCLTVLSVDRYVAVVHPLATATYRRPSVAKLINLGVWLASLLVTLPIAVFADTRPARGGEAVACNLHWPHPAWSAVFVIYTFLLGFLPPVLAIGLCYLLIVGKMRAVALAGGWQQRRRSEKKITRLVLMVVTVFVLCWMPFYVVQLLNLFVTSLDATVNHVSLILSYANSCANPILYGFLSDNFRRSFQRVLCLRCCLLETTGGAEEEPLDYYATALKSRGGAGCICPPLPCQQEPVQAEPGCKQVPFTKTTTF

Compound	pKi [1]	pKi [2]	pKi [3]
CC[C@@H]1NC(=O)[C@H](CCCCN)NC(=O)[C@@H](Cc2c[nH]c3ccccc23)NC(=O)[C@H](Cc2ccc(O)cc2)NC(=O)[C@@H](NC(=O)[C@H](N)Cc2ccccc2)CSSC[C@@H](C(=O)N[C@H](C(N)=O)[C@@H](C)O)NC1=O [D-Phe-L-Cys(1)-L-Tyr-D-Trp-L-Lys-L-Abu-L-Cys(1)-L-Thr-NH2]	9.74		
CC(C)C1NC(=O)C(CCCCN)NC(=O)C(Cc2c[nH]c3ccccc23)NC(=O)C(Cc2ccc(O)cc2)NC(=O)C(NC(=O)C(N)Cc2ccccc2)CSSCC(C(=O)NC(Cc2c[nH]c3ccccc23)C(N)=O)NC1=O (stereo not given) [CAS_71306] (H-FCYWKVCW-NH2; disulfide 2-7; configuration not given here)	8.80		
CC(C)[C@H](NC(=O)[C@H](CCCCN)NC(=O)[C@@H](Cc1c[nH]c2ccccc12)NC(=O)[C@H](Cc1ccc(O)cc1)NC(=O)[C@H](Cc1ccccc1)NC(=O)[C@H](N)Cc1ccccc1)C(=O)N[C@@H](Cc1ccccc1)C(=O)N[C@H](Cc1ccccc1)C(N)=O [D-Phe-Phe-Tyr-D-Trp-Lys-Val-Phe-D-Phe-NH2] (H-[dF]FY[dW]KVF[dF]-NH2)	8.48	6.60	
C[C@@H](OCc1ccccc1)[C@@H]1NC(=O)[C@H](CCCCN)NC(=O)[C@@H](Cc2c[nH]c3ccccc23)NC(=O)[C@H](Cc2ccccc2)NC(=O)CCCCCCNC1=O [c[Aha-Phe-D-Trp-Lys-Thr(Bzl)]] (cyclo([Ahp]F[dW]KT(Bn)))		6.00	
CC(C)[C@H](NC(=O)[C@H](CCCCN)NC(=O)[C@@H](Cc1c[nH]c2ccccc12)NC(=O)[C@H](Cc1ccc(O)cc1)NC(=O)[C@H](C)NCc1ccc2ccccc2c1)C(=O)N[C@@H](C)C(=O)N[C@H](C(N)=O)[C@@H](C)O [D-Nal-Ala-Tyr-D-Trp-Lys-Val-Ala-Thr-NH2] (H-[X3]Y[dW]KVAT-NH2)	6.84		
C[C@@H](Oc1ccccc1)[C@@H]1NC(=O)[C@H](CCCCN)NC(=O)[C@@H](Cc2c[nH]c3ccccc23)NC(=O)[C@H](Cc2ccccc2)NCCCCCCNC1=O [c[Aha-Phe-D-Trp-Lys-Thr(Bzl)]]	7.29		
C[C@@H](O)[C@H](NC(=O)[C@H](Cc1ccccc1)NC(=O)[C@@H](NC(=O)[C@H](CCCCN)NC(=O)[C@@H](Cc1c[nH]c2ccccc12)NC(=O)[C@H](Cc1ccccc1)NC(=O)[C@H](Cc1ccccc1)NC(=O)[C@H](N)Cc1ccccc1)[C@@H](C)O)C(N)=O [CAS_133073-82-2] (H-[dF]FF[dW]KTFT-NH2)		7.74	9.39
CC(C)[C@H](NC(=O)[C@H](CCCCN)NC(=O)[C@@H](Cc1c[nH]c2ccccc12)NC(=O)[C@H](Cc1ccc(O)cc1)NC(=O)[C@H](C)NC(=O)[C@H](N)Cc1ccc2ccccc2c1)C(=O)N[C@@H](C)C(=O)N[C@H](C(N)=O)[C@@H](C)O [D-Nal-Ala-Tyr-D-Trp-Lys-Val-Ala-Thr-NH2] (H-[d2Nal]AY[dW]KVAT-NH2)		6.00	
C[C@H](O)[C@H]1NC(=O)[C@H](CCCCN)NC(=O)[C@@H](Cc2c[nH]c3ccccc23)NC(=O)[C@@H](Cc2ccccc2)NC(=O)[C@@H](C)N(C)C(=O)[C@@H](Cc2ccccc2)N(C)C1=O [N-Methylcyclo(D-Ala-D-Phe-D-Trp-L-Lys-D-Thr-N-methyl-D-Phe-)] (cyclo(K[dT][dNMeF][dNMeA][dF][dW]))	6.39	6.00	
CSCC[C@H](NC(=O)[C@H](C)NC(=O)[C@@H]1CCCN1C(=O)[C@H](CC(N)=O)NC(=O)[C@H](CO)NC(=O)[C@H](CC(N)=O)NC(=O)[C@H](C)NC(=O)[C@@H](N)CO)C(=O)N[C@@H](C)C(=O)N1CCC[C@H]1C(=O)N[C@@H](CCCNC(=N)N)C(=O)N[C@@H](CCC(=O)O)C(=O)N[C@@H](CCCNC(=N)N)C(=O)N[C@@H](CCCCN)C(=O)N[C@@H](C)C(=O)NCC(=O)N[C@H]1CSSC[C@@H](C(=O)O)NC(=O)[C@H](CO)NC(=O)[C@H]([C@@H](C)O)NC(=O)[C@H](Cc2ccccc2)NC(=O)[C@H]([C@@H](C)O)NC(=O)[C@H](CCCCN)NC(=O)[C@H](Cc2c[nH]c3ccccc23)NC(=O)[C@H](Cc2ccccc2)NC(=O)[C@H](Cc2ccccc2)NC(=O)[C@H](CC(N)=O)NC(=O)[C@H](CCCCN)NC1=O [L-Ser-L-Ala-L-Asn-L-Ser-L-Asn-L-Pro-L-Ala-L-Met-L-Ala-L-Pro-L-Arg-L-Glu-L-Arg-L-Lys-L-Ala-Gly-L-Cys(1)-L-Lys-L-Asn-L-Phe-L-Phe-L-Trp-L-Lys-L-Thr-L-Phe-L-Thr-L-Ser-L-Cys(1)-OH]		9.55	
CC(C)[C@H](NC(=O)[C@H](CCCCN)NC(=O)[C@@H](Cc1c[nH]c2ccccc12)NC(=O)[C@H](Cc1ccc(O)cc1)NC(=O)[C@H](C)NC(=O)[C@H](N)Cc1ccccc1)C(=O)N[C@@H](C)C(=O)N[C@H](Cc1ccc2ccccc2c1)C(N)=O [D-Phe-AIa-Tyr-D-Trp-Lys-Val-Ala-D-Nal-NH2] (H-[dF]AY[dW]KVA[d2Nal]-NH2)	8.23	6.00	
CC(C)[C@@H]1NC(=O)[C@H](CCCCN)NC(=O)[C@@H](Cc2c[nH]c3ccccc23)NC(=O)[C@H](Cc2ccc(O)cc2)NC(=O)[C@@H](NC(=O)[C@H](N)Cc2ccc3ccccc3c2)CSSC[C@@H](C(=O)N[C@H](C(N)=O)[C@@H](C)O)NC1=O [3-(2-Naphtyl)-D-Ala-L-Cys(1)-L-Tyr-D-Trp-L-Lys-L-Val-L-Cys(1)-L-Thr-NH2]	10.00		
CC(C)[C@@H]1NC(=O)[C@H](CCCCN)NC(=O)[C@@H](Cc2c[nH]c3ccccc23)NC(=O)[C@H](Cc2ccc(O)cc2)NC(=O)[C@H](C)N(C)C(=O)[C@H](Cc2ccccc2)NC1=O [CAS_3086456]		6.00	
CC(CO)C(NC(=O)C1NC(=O)N[C@@H](Cc2ccc(O)cc2)C(=O)N[C@H](Cc2c[nH]c3ccccc23)C(=O)N[C@@H](CCCCN)C(=O)N[C@@H](C(C)CO)C(=O)NC(C(=O)N[C@@H](Cc2ccc3ccccc3c2)C(N)=O)SS1)C(N)=O (stereo partly drawn) [D-Nal-c[Cys-Tyr-D-Trp-Lys-Thr-Cys]-Thr-NH2]	10.15		
CC(O)[C@H](CO)NC(=O)[C@@H]1CSSCC(NC(=O)C(N)Cc2ccccc2)C(=O)N[C@H](Cc2ccccc2)C(=O)N[C@H](Cc2c[nH]c3ccccc23)C(=O)N[C@H](CCCCN)C(=O)N[C@H](C(C)O)C(=O)N1 (stereo not given in full) (H-[ξF][ξC][dF][dW][dK][dThr(3ξ)]C-X2; disulfide 2-7)	9.24		
C[C@@H](O)[C@@H]1NC(=O)[C@H](CCCCN)NC(=O)[C@@H](Cc2c[nH]c3ccccc23)NC(=O)[C@H](Cc2ccccc2)NC(=O)[C@@H]2CSSCC(NC1=O)C(=O)NCCCCCCC(=O)N2 [(1R,4S,7S,10R,13S,16R)-4-[(R)-1-Hydroxyethyl]-7-(4-aminobutyl)-10-(1H-indole-3-ylmethyl)-13-benzyl-28,29-dithia-2,5,8,11,14,17,25-heptaazabicyclo[14.10.4]triacontane-3,6,9,12,15,18,26-heptone] (cyclo([Ahp]CF[dW]KT[ξC]); disulfide 2-7)	8.92	6.00	10.15
C[C@@H](O)[C@@H]1NC(=O)[C@H](CCCCN)NC(=O)[C@@H](Cc2c[nH]c3ccccc23)NC(=O)[C@H](Cc2ccccc2)NC(=O)[C@@H]2CCCN2C(=O)[C@H](Cc2ccccc2)NC1=O (cyclo(PF[dW]KTF))	8.49	6.00	
CC(C)C1NC(=O)C(CCCCN)NC(=O)C(Cc2c[nH]c3ccccc23)NC(=O)C(Cc2ccc(O)cc2)NC(=O)C(C)N(C)C(=O)C(Cc2ccccc2)NC1=O (stereo not given) [CAS_3086456]	8.26		

The next lines start with the values.

pKi [1]	pKi [2]	pKi [3]	Compound
	7.11	10.52	CC(C)[C@H](NC(=O)[C@H](CCCCN)NC(=O)[C@@H](Cc1c[nH]c2ccccc12)NC(=O)[C@H](Cc1ccc(O)cc1)NC(=O)[C@H](Cc1ccccc1)NC(=O)[C@H](N)Cc1ccccc1)C(=O)N[C@@H](Cc1ccccc1)C(=O)N[C@H](C(N)=O)[C@@H](C)O [BIM-23058] (H-[dF]FY[dW]KVFT-NH2)
8.33			C[C@H](O)[C@@H]1NC(=O)C(CCCCN)NC(=O)[C@@H](Cc2c[nH]c3ccccc23)NC(=O)C(Cc2ccccc2)NC(=O)C(Cc2ccccc2)NC(=O)C(CC(N)=O)NC(=O)C(CCCCN)NC(=O)CCCCC[C@H](C(=O)O)NC(=O)[C@@H](CO)NC(=O)[C@H]([C@H](C)O)NC(=O)[C@@H](Cc2ccc(O)cc2)NC1=O (stereo not given in full) [CGP-23996]
11.00	7.20		C[C@@H](O)[C@@H]1NC(=O)[C@H](CCCCN)NC(=O)[C@@H](Cc2c[nH]c3ccccc23)NC(=O)[C@H](Cc2c[nH]c3ccccc23)NC(=O)[C@H](Cc2ccccc2)NC(=O)CCCCCCNC(=O)[C@H](Cc2ccccc2)NC1=O [L-362855] (cyclo([Ahp]FW[dW]KTF))
8.21	6.00		CC[C@@H]1NC(=O)[C@H](CCCCN)NC(=O)[C@@H](Cc2c[nH]c3ccccc23)NC(=O)[C@H](Cc2ccc(O)cc2)NC(=O)[C@H](C)N(C)C(=O)[C@H](Cc2ccccc2)NC1=O [BIM-23027] (cyclo([Abu]F[NMeA]Y[dW]K))
8.92			CC(C)[C@H](NC(=O)[C@H](CCCCN)NC(=O)[C@@H](Cc1c[nH]c2ccccc12)NC(=O)[C@H](Cc1ccc(O)cc1)NC(=O)[C@H](Cc1ccccc1)NC(=O)[C@@H](N)Cc1ccccc1)C(=O)N[C@@H](Cc1ccccc1)C(=O)N[C@H](C(N)=O)[C@@H](C)O [BIM-23058] (H-FFY[dW]KVFT-NH2)
	7.36		C[C@@H](O)[C@@H]1NC(=O)[C@H](CCCCN)NC(=O)[C@@H](Cc2c[nH]c3ccccc23)NC(=O)[C@H](Cc2ccc(Cl)cc2)NC(=O)[C@H](Cc2ccccc2)NC(=O)CCCCCCNC(=O)[C@H](Cc2ccccc2)NC1=O [L-362862] (cyclo([Ahp]F[Phe(4-Cl)][dW]KTF))
9.34			C[C@@H](O)[C@@H]1NC(=O)[C@H](CCCCN)NC(=O)[C@@H](Cc2c[nH]c3ccccc23)NC(=O)[C@H](Cc2ccccc2)NC(=O)[C@H](Cc2ccc(Cl)cc2)NC(=O)CCCCCCNC(=O)[C@H](Cc2ccccc2)NC1=O [L-362862] (cyclo([Ahp][Phe(4-Cl)]F[dW]KTF))
